Entries after “also recorded” stand apart in the source; their conditions may differ. Where two headings read alike, the source gives them in different places.
Target: T1, GluN1/GluN2B NMDA receptors (UniProt P35439+Q01097)
T1 construct: expressed in transfected cells; host or cells: Xenopus laevis oocytes (nuclear cDNA injection)
Test: TEVC electrophysiology on Xenopus oocytes expressing wt GluN1/GluN2B NMDARs
Assay type: cell-based, rat GluN1, mouse GluN2B
Conditions: for remaining activity at 0.01 µM / remaining activity at 0.025 µM / remaining activity at 0.05 µM / remaining activity at 0.1 µM / remaining activity at 0.15 µM: GluN1/GluN2B wt, read-out: Relative current (IOpto/I0); for remaining activity at 0.01 µM: 0.010 µM; for remaining activity at 0.05 µM: 0.050 µM; for remaining activity at 0.1 µM: 0.100 µM; for remaining activity at 0.15 µM: 0.150 µM

T1 sequence (Q01097 27-1482, other chains not shown): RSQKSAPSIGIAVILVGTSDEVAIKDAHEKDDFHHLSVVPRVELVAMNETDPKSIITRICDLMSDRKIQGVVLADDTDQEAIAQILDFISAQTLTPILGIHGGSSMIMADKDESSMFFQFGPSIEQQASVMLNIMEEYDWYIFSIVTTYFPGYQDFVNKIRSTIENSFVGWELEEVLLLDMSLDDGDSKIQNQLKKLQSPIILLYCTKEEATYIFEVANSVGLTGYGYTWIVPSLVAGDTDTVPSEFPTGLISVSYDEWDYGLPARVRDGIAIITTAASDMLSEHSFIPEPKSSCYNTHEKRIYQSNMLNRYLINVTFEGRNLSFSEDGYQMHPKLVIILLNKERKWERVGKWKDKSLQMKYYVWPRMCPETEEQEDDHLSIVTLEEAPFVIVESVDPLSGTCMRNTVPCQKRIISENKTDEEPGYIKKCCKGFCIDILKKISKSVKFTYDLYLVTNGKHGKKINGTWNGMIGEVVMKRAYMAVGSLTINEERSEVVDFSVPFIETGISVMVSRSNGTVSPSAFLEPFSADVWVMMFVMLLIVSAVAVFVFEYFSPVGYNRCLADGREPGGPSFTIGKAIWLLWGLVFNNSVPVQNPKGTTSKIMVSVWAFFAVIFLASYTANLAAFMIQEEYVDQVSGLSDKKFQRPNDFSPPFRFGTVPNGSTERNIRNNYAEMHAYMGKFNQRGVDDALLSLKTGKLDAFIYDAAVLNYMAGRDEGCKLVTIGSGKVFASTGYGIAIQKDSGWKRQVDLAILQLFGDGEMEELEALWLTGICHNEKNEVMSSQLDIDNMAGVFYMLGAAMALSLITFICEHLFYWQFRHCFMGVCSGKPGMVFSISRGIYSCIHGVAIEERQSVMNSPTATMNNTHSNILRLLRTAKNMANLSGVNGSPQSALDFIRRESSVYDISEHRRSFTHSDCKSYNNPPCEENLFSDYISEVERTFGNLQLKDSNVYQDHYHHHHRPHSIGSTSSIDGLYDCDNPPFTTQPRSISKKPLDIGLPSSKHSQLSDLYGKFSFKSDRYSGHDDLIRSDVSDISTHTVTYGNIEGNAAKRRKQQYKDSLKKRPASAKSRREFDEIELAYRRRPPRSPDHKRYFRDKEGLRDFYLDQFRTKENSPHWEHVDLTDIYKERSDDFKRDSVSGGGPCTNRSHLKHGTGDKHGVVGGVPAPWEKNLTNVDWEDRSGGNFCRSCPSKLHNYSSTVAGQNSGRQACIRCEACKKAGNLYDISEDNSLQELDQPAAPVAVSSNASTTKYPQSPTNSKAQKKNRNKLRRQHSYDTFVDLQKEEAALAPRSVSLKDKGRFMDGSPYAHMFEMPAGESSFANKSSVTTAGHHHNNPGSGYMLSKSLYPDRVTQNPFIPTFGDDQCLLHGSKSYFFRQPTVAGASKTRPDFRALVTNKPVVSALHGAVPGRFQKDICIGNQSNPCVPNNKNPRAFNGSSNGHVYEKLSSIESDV

With CS(=O)(=O)Nc1ccc2nc(Cc3ccc(/N=N/c4ccccc4)cc3)[nH]c2c1 [OptoNAM-4, (E)-N-(2-(4-(phenyldiazenyl)benzyl)-1H-benzo[d]imidazol-6-yl)methanesulfonamide] the IC50 (365 nm PSS, Xenopus oocytes, read-out: IC50 on GluN1/GluN2B receptors, pre-illuminated with 365 nm) was 0.031 ± 0.029 µM, the remaining activity at 0.01 µM (365 nm PSS) was 69.6% and the remaining activity at 0.025 µM (365 nm PSS) was 50.1%. It also gave a remaining activity at 0.05 µM (365 nm PSS) of 44.8%, a remaining activity at 0.1 µM (365 nm PSS) of 34% and a remaining activity at 0.15 µM (365 nm PSS) of 21%. The remaining activity at 0.01 µM (dark PSS (trans)) was 68.3%, the remaining activity at 0.025 µM (dark PSS (trans)) was 45.6% and the remaining activity at 0.05 µM (dark PSS (trans)) was 39%. The remaining activity at 0.1 µM (dark PSS (trans)) was 29.7%, the remaining activity at 0.15 µM (dark PSS (trans)) was 15% and the IC50 (dark PSS (trans), Xenopus oocytes, read-out: IC50 on GluN1/GluN2B receptors in the dark) was 0.024 ± 0.026 µM. For the same compound, the “photodependence of activity on GluN1/GluN2B NMDARs” value (dark vs 365 nm PSS) was “not photodependent; also recorded: did not display any photodependence of activity” and the “UV/dark IC50 ratio (365 nm PSS vs dark)” value (preilluminated in solution, Xenopus oocytes) was 1.3 fold.
